Five compounds from patent US6310043A (priority 1999, dated 2001) can be followed below.

Common to all, as to type: binding, E. coli
One experiment deals with SLT-2 (VT-2) (Escherichia phage 933W, UniProt P09386).
Another experiment addresses SLT-1 (Verotoxin I) (Bacteriophage H30, UniProt P69178). In words: biochemical. To be noted: for IC50: read-out: IC50.
For a further experiment, the target named is SLT-1 (VT-1) (Bacteriophage H30, UniProt P69178).
[1] abbreviates: solid phase assays, protocol A or B.

SMILES strings stand for the structures.

SLT-1 (VT-1), sequence (P69178 whole entry, looked up): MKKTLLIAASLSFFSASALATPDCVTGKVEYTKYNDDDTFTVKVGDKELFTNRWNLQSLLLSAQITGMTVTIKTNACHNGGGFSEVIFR
SLT-1 (Verotoxin I), sequence (P69178 whole entry, looked up): as above
SLT-2 (VT-2), sequence (P09386 whole entry, looked up): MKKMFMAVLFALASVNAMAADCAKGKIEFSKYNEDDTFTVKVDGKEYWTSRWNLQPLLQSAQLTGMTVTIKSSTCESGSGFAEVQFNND

Consider `CO[C@@H]1O[C@H](CO)[C@@H](O[C@@H]2O[C@H](CO)[C@H](O[C@H]3O[C@H](CO)[C@H](O)[C@H](O)[C@H]3O)[C@H](O)[C@H]2OCCOC(=O)NCC(CNC(=O)OCCO[C@H]2[C@H](O[C@H]3[C@H](O)[C@@H](O)[C@H](OC)O[C@@H]3CO)O[C@H](CO)[C@H](O[C@H]3O[C@H](CO)[C@H](O)[C@H](O)[C@H]3O)[C@@H]2O)OC(=O)NCCCCCCCCNc2c(NCCNC(=O)CSCCCOC[C@H]3O[C@@H](OCCCSCC(=O)NCCNc4c(NCCCCCCCCNC(=O)OC(CNC(=O)OCCO[C@H]5[C@H](O[C@H]6[C@H](O)[C@@H](O)[C@H](OC)O[C@@H]6CO)O[C@H](CO)[C@H](O[C@H]6O[C@H](CO)[C@H](O)[C@H](O)[C@H]6O)[C@@H]5O)CNC(=O)OCCO[C@H]5[C@H](O[C@H]6[C@H](O)[C@@H](O)[C@H](OC)O[C@@H]6CO)O[C@H](CO)[C@H](O[C@H]6O[C@H](CO)[C@H](O)[C@H](O)[C@H]6O)[C@@H]5O)c(=O)c4=O)[C@H](OCCCSCC(=O)NCCNc4c(NCCCCCCCCNC(=O)OC(CNC(=O)OCCO[C@H]5[C@H](O[C@H]6[C@H](O)[C@@H](O)[C@H](OC)O[C@@H]6CO)O[C@H](CO)[C@H](O[C@H]6O[C@H](CO)[C@H](O)[C@H](O)[C@H]6O)[C@@H]5O)CNC(=O)OCCO[C@H]5[C@H](O[C@H]6[C@H](O)[C@@H](O)[C@H](OC)O[C@@H]6CO)O[C@H](CO)[C@H](O[C@H]6O[C@H](CO)[C@H](O)[C@H](O)[C@H]6O)[C@@H]5O)c(=O)c4=O)[C@@H](OCCCSCC(=O)NCCNc4c(NCCCCCCCCNC(=O)OC(CNC(=O)OCCO[C@H]5[C@H](O[C@H]6[C@H](O)[C@@H](O)[C@H](OC)O[C@@H]6CO)O[C@H](CO)[C@H](O[C@H]6O[C@H](CO)[C@H](O)[C@H](O)[C@H]6O)[C@@H]5O)CNC(=O)OCCO[C@H]5[C@H](O[C@H]6[C@H](O)[C@@H](O)[C@H](OC)O[C@@H]6CO)O[C@H](CO)[C@H](O[C@H]6O[C@H](CO)[C@H](O)[C@H](O)[C@H]6O)[C@@H]5O)c(=O)c4=O)[C@@H]3OCCCSCC(=O)NCCNc3c(NCCCCCCCCNC(=O)OC(CNC(=O)OCCO[C@H]4[C@H](O[C@H]5[C@H](O)[C@@H](O)[C@H](OC)O[C@@H]5CO)O[C@H](CO)[C@H](O[C@H]5O[C@H](CO)[C@H](O)[C@H](O)[C@H]5O)[C@@H]4O)CNC(=O)OCCO[C@H]4[C@H](O[C@H]5[C@H](O)[C@@H](O)[C@H](OC)O[C@@H]5CO)O[C@H](CO)[C@H](O[C@H]5O[C@H](CO)[C@H](O)[C@H](O)[C@H]5O)[C@@H]4O)c(=O)c3=O)c(=O)c2=O)[C@H](O)[C@H]1O` [Compound 22], for which the results for the half-inhibitory concentration (IC50) against SLT-2 (VT-2), on SLT-1 (Verotoxin I) and against SLT-1 (VT-1) were 6 nM, 0.23 nM and 0.4 nM, respectively. The “activity relative to the Pk trisaccharide alone” value on SLT-1 (Verotoxin I) (ELISA, VT-I) is given as “about a million times more active than the trisaccharide alone”. At SLT-1 (Verotoxin I) (similar ELISA, FIG. 5), the “activity relative to the bridged trisaccharide dimer” value is “about 10,000 times”. The “relative inhibition of SLT-1 binding to P^k ligand (in words)” value on SLT-1 (Verotoxin I) (setting [1]) was “by far the most active inhibitor of SLT-1 binding to P^k ligand”.

`CO[C@@H]1O[C@H](CO)[C@@H](O[C@@H]2O[C@H](CO)[C@H](O[C@H]3O[C@H](CO)[C@H](O)[C@H](O)[C@H]3O)[C@H](O)[C@H]2OCCOC(=O)NCC(CNC(=O)OCCO[C@H]2[C@H](O[C@H]3[C@H](O)[C@@H](O)[C@H](OC)O[C@@H]3CO)O[C@H](CO)[C@H](O[C@H]3O[C@H](CO)[C@H](O)[C@H](O)[C@H]3O)[C@@H]2O)OC(=O)NCCCCCCCCNc2c(NCCNC(=O)CSCCCOC[C@H]3O[C@@H](OC)[C@H](OCCCSCC(=O)NCCNc4c(NCCCCCCCCNC(=O)OC(CNC(=O)OCCO[C@H]5[C@H](O[C@H]6[C@H](O)[C@@H](O)[C@H](OC)O[C@@H]6CO)O[C@H](CO)[C@H](O[C@H]6O[C@H](CO)[C@H](O)[C@H](O)[C@H]6O)[C@@H]5O)CNC(=O)OCCO[C@H]5[C@H](O[C@H]6[C@H](O)[C@@H](O)[C@H](OC)O[C@@H]6CO)O[C@H](CO)[C@H](O[C@H]6O[C@H](CO)[C@H](O)[C@H](O)[C@H]6O)[C@@H]5O)c(=O)c4=O)[C@@H](OCCCSCC(=O)NCCNc4c(NCCCCCCCCNC(=O)OC(CNC(=O)OCCO[C@H]5[C@H](O[C@H]6[C@H](O)[C@@H](O)[C@H](OC)O[C@@H]6CO)O[C@H](CO)[C@H](O[C@H]6O[C@H](CO)[C@H](O)[C@H](O)[C@H]6O)[C@@H]5O)CNC(=O)OCCO[C@H]5[C@H](O[C@H]6[C@H](O)[C@@H](O)[C@H](OC)O[C@@H]6CO)O[C@H](CO)[C@H](O[C@H]6O[C@H](CO)[C@H](O)[C@H](O)[C@H]6O)[C@@H]5O)c(=O)c4=O)[C@@H]3OCCCSCC(=O)NCCNc3c(NCCCCCCCCNC(=O)OC(CNC(=O)OCCO[C@H]4[C@H](O[C@H]5[C@H](O)[C@@H](O)[C@H](OC)O[C@@H]5CO)O[C@H](CO)[C@H](O[C@H]5O[C@H](CO)[C@H](O)[C@H](O)[C@H]5O)[C@@H]4O)CNC(=O)OCCO[C@H]4[C@H](O[C@H]5[C@H](O)[C@@H](O)[C@H](OC)O[C@@H]5CO)O[C@H](CO)[C@H](O[C@H]5O[C@H](CO)[C@H](O)[C@H](O)[C@H]5O)[C@@H]4O)c(=O)c3=O)c(=O)c2=O)[C@H](O)[C@H]1O` [Compound 23]: the results for the IC50 against SLT-2 (VT-2), at SLT-1 (Verotoxin I) and at SLT-1 (VT-1) were 9 nM, 1.6 nM and 3.3 nM, respectively.

With `CO[C@@H]1O[C@H](CO)[C@@H](O[C@@H]2O[C@H](CO)[C@H](O[C@H]3O[C@H](CO)[C@H](O)[C@H](O)[C@H]3O)[C@H](O)[C@H]2OCCOC(=O)NCCCCCCCCNc2c(NCCNC(=O)CSCCCOC[C@H]3O[C@@H](OCCCSCC(=O)NCCNc4c(NCCCCCCCCNC(=O)OCCO[C@H]5[C@H](O[C@H]6[C@H](O)[C@@H](O)[C@H](OC)O[C@@H]6CO)O[C@H](CO)[C@H](O[C@H]6O[C@H](CO)[C@H](O)[C@H](O)[C@H]6O)[C@@H]5O)c(=O)c4=O)[C@H](OCCCSCC(=O)NCCNc4c(NCCCCCCCCNC(=O)OCCO[C@H]5[C@H](O[C@H]6[C@H](O)[C@@H](O)[C@H](OC)O[C@@H]6CO)O[C@H](CO)[C@H](O[C@H]6O[C@H](CO)[C@H](O)[C@H](O)[C@H]6O)[C@@H]5O)c(=O)c4=O)[C@@H](OCCCSCC(=O)NCCNc4c(NCCCCCCCCNC(=O)OCCO[C@H]5[C@H](O[C@H]6[C@H](O)[C@@H](O)[C@H](OC)O[C@@H]6CO)O[C@H](CO)[C@H](O[C@H]6O[C@H](CO)[C@H](O)[C@H](O)[C@H]6O)[C@@H]5O)c(=O)c4=O)[C@@H]3OCCCSCC(=O)NCCNc3c(NCCCCCCCCNC(=O)OCCO[C@H]4[C@H](O[C@H]5[C@H](O)[C@@H](O)[C@H](OC)O[C@@H]5CO)O[C@H](CO)[C@H](O[C@H]5O[C@H](CO)[C@H](O)[C@H](O)[C@H]5O)[C@@H]4O)c(=O)c3=O)c(=O)c2=O)[C@H](O)[C@H]1O` [Compound 25], the IC50 at SLT-1 (Verotoxin I) came out at 24 nM; against SLT-1 (VT-1), 1230 nM. The “fold less active when compared to 22” value on SLT-1 (Verotoxin I) (solid phase assays, protocol A or B, SLT-1) was 500-1000 fold.

Consider `CO[C@@H]1O[C@H](CO)[C@@H](O[C@@H]2O[C@H](CO)[C@H](O[C@H]3O[C@H](CO)[C@H](O)[C@H](O)[C@H]3O)[C@H](O)[C@H]2OCCOC(=O)NCCCCCCCCNc2c(NCCNC(=O)CSCCCOC[C@H]3O[C@@H](OC)[C@H](OCCCSCC(=O)NCCNc4c(NCCCCCCCCNC(=O)OCCO[C@H]5[C@H](O[C@H]6[C@H](O)[C@@H](O)[C@H](OC)O[C@@H]6CO)O[C@H](CO)[C@H](O[C@H]6O[C@H](CO)[C@H](O)[C@H](O)[C@H]6O)[C@@H]5O)c(=O)c4=O)[C@@H](OCCCSCC(=O)NCCNc4c(NCCCCCCCCNC(=O)OCCO[C@H]5[C@H](O[C@H]6[C@H](O)[C@@H](O)[C@H](OC)O[C@@H]6CO)O[C@H](CO)[C@H](O[C@H]6O[C@H](CO)[C@H](O)[C@H](O)[C@H]6O)[C@@H]5O)c(=O)c4=O)[C@@H]3OCCCSCC(=O)NCCNc3c(NCCCCCCCCNC(=O)OCCO[C@H]4[C@H](O[C@H]5[C@H](O)[C@@H](O)[C@H](OC)O[C@@H]5CO)O[C@H](CO)[C@H](O[C@H]5O[C@H](CO)[C@H](O)[C@H](O)[C@H]5O)[C@@H]4O)c(=O)c3=O)c(=O)c2=O)[C@H](O)[C@H]1O` [Compound 26], for which the IC50 is 350 nM at SLT-1 (Verotoxin I) and 3400 nM against SLT-1 (VT-1). Further, the “relative inhibition of SLT-1 binding to P^k ligand (in words)” value on SLT-1 (Verotoxin I) (setting [1]) is “the activity drops by several orders of magnitude”.

For the compound `CO[C@@H]1O[C@H](CO)[C@@H](O[C@@H]2O[C@H](CO)[C@H](O[C@H]3O[C@H](CO)[C@H](O)[C@H](O)[C@H]3O)[C@H](O)[C@H]2OCCOC(=O)NCCCCCCCCNc2c(NCCNC(=O)CSCCCO[C@@H]3[C@@H](OCCCSCC(=O)NCCNc4c(NCCCCCCCCNC(=O)OCCO[C@H]5[C@H](O[C@H]6[C@H](O)[C@@H](O)[C@H](OC)O[C@@H]6CO)O[C@H](CO)[C@H](O[C@H]6O[C@H](CO)[C@H](O)[C@H](O)[C@H]6O)[C@@H]5O)c(=O)c4=O)[C@H](OC)O[C@H](CO)[C@H]3OCCCSCC(=O)NCCNc3c(NCCCCCCCCNC(=O)OCCO[C@H]4[C@H](O[C@H]5[C@H](O)[C@@H](O)[C@H](OC)O[C@@H]5CO)O[C@H](CO)[C@H](O[C@H]5O[C@H](CO)[C@H](O)[C@H](O)[C@H]5O)[C@@H]4O)c(=O)c3=O)c(=O)c2=O)[C@H](O)[C@H]1O` [Compound 27], the half-inhibitory concentration (IC50) stood at 3500 nM on SLT-1 (Verotoxin I) and 13600 nM against SLT-1 (VT-1). Further, the “relative inhibition of SLT-1 binding to P^k ligand (in words)” value at SLT-1 (Verotoxin I) (setting [1]) was “the activity drops by several orders of magnitude”.
